In article PMC6268492, “Synthesis and Antiangiogenic Activity of Novel Gambogic Acid Derivatives” (Molecules, 2012):
Read-outs that look alike come from different tables or passages of the source.

Assays:
HUVECs = assay: Matrigel tube formation assay; assay type: cell-based, Human
Experimental: In the later stages of angiogenesis, tube formation of ECs is also an important process. Thus, a Matrigel tube formation assay was applied to assess the ability of HUVECs to form ECs vascular structures which is believed to be significant in new vessel formation.
Figure 4 Effects on the HUVECs tube formation. (I) HUVECs (1 × 10^4 cells) suspended in DMEM containing each compound (0.5 or 1 or 2 μM) were added to the Matrigel. Control was treated with DMEM alone. After incubation for 6 h at 37 °C, capillary networks were photographed and quantified (Olympus CKX41, magnification: 100×); (II) Rates of the HUVECs tube formation. The number of intact tubes was counted in five randomly chosen regions and expressed as the percentage of the control. The results were expressed as mean ±SD. ** p < 0.01; *** p < 0.005 compared with control.
Matrigel was dissolved at 4 °C overnight. Each well of prechilled 96-well plates was coated with 50 μL of Matrigel, incubated and solidified at 37 °C for 45 min. After removing the unsolidified fluid, HUVECs at the density of 1 × 10^4 were cultured in DMEM containing the indicated concentrations of compounds for 6 h. Controls were treated with the DMEM alone. Images were digitally captured and quantitatively analyzed (Olympus). The numbers and line lengths of the circular tubules formed by the cells were calculated manually. The values were observed from five randomly selected fields.

zebrafish embryos [1] = assay: Zebrafish toxicity: mortality rate; assay type: in vivo, zebrafish (Danio rerio)
Experimental: (§1) To investigate the toxicity of these four compounds, the heart rates and the mortality rates of zebrafish embryos were recorded (Table 2 and Table 3). The heart rate of zebrafish in the control group was 117 beats/min.
(§2) Using transgenic fli-1: enhanced GFP zebrafish embryos, we investigated the effects of all compounds on angiogenesis. Zebrafish embryos were generated by natural pairwise mating and raised at 28.5 °C in embryo water (0.2 g/L of Instant Ocean Salt in distilled water). At about 6 h post fertilization (hpf), the embryos were sorted in the 6-well plate (six embryos/well), removing dead and unhealthy embryos. Then the embryos were treated with the indicated concentrations of compounds which were added into embryo water. After incubation for 24 or 48 h, the embryos were anesthetized using 0.05% 2-phenoxyethanol in embryo water, quantified and photographed.

[2] = system: transgenic fli-1: enhanced GFP zebrafish embryos; assay: Zebrafish embryo assay: antiangiogenic effects; assay type: in vivo, zebrafish (Danio rerio); settings: Danio rerio, zebrafish embryos
HUVEC = assay: MTT assay, cell proliferation; assay type: cell-based, Human; settings: Homo sapiens, 24 h, read-out: IC50, inhibition of cell proliferation
Outline: (§3)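 Absorbance at 570 nm of DMSO-dissolved formazan was expressed as percentage growth relative to untreated cells, and IC50 was taken as the concentration giving 50% inhibition. Seeding was 5 × 10^3 cells per well, with 24 h compound treatment followed by 3 h MTT.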

A549 = assay: MTT assay, cell proliferation; assay type: cell-based; settings: Homo sapiens, 24 h, read-out: IC50, inhibition of cell proliferation
Outline: as §3

K562 = assay: MTT assay, cell proliferation; assay type: cell-based; settings: Homo sapiens, 24 h, read-out: IC50, inhibition of cell proliferation
Outline: (§4)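 Cells are seeded at 5 × 10^3 per well and treated with a concentration series for 24 h. MTT is then added for 3 h, the precipitate is solubilised in DMSO and read at 570 nm. K562 grows in RPMI 1640, the other lines in DMEM, all with 10% FBS.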

HepG2 = assay: MTT assay, cell proliferation; assay type: cell-based; settings: Homo sapiens, 24 h, read-out: IC50, inhibition of cell proliferation
Outline: as §4

HeLa = assay: MTT assay, cell proliferation; assay type: cell-based; settings: Homo sapiens, 24 h, read-out: IC50, inhibition of cell proliferation
Outline: as §4

HCT116 = assay: MTT assay, cell proliferation; assay type: cell-based; settings: Homo sapiens, HCT-116, 24 h, read-out: IC50, inhibition of cell proliferation
Outline: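 Treatment lasted 24 h at 5 × 10^3 cells per well. MTT incubation ran 3 h, formazan was dissolved in DMSO and A570 was recorded. Percent growth against untreated wells gave the IC50 (50% inhibition).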

LO2 = assay: MTT assay, cytotoxicity; assay type: cell-based; settings: Homo sapiens, L02, 24 h, read-out: IC50, inhibition of cell proliferation
Outline: as §4

zebrafish embryos [3] = assay: Zebrafish toxicity: heart rates; assay type: in vivo; settings: for Heart rates of zebrafish: control 117 beats/min
Experimental: as §1, §2

In the case of `CC(=O)Nc1ccc(NC(=O)/C(C)=C\CC23OC(C)(C)C4CC(C=C5C(=O)c6c(O)c7c(c(CC8OC8(C)C)c6OC542)OC(C)(CCC2OC2(C)C)C=C7)C3=O)cc1` (stereo not shown) [Compound 36, (32,33),(37,38)-Diepoxy-N-(4-acetamidophenyl) gambogamide], the “improvement in the inhibition of tube formation compared with GA” value (HUVECs; 0.5 μM) is reported as 2 fold, the inhibition at 0.5 µM (HUVECs; Homo sapiens, HUVEC, 0.5 μM, 6 h, vs control, read-out: inhibitory rates of tube formation) is reported as 56.5% and the inhibition at 2 µM (HUVECs; Homo sapiens, HUVEC, 2 μM, read-out: tube formation inhibitory rate) is reported as 100%. The “inhibition of tubular structures” value (HUVECs; concentrations exceeding 1 μM) was “completely inhibit tubular structures”, the Mortality rates (zebrafish embryos [1]; 1 μM, zebrafish) was 0% and the Mortality rates (zebrafish embryos [1]; 2.5 µM and 10 µM, zebrafish embryos) was “less than 20%”. It also gave a Mortality rates (zebrafish embryos [1]; 2.5 μM, zebrafish) of 3.3 ± 5.77 %, a Mortality rates (zebrafish embryos [1]; 10 μM, zebrafish) of 16.7 ± 5.77 % and an inhibition in vivo at 1 µM ([2]; read-out: antiangiogenic rates) of 25 to 50%. It also gave an inhibition in vivo at 1 µM ([2]; vs vehicle (0.05% DMSO), read-out: Anti-angiogenic phenotype) of 25 to 50%, an inhibition in vivo at 2.5 µM ([2]; 2.5 μM, vs vehicle (0.05% DMSO), read-out: Anti-angiogenic phenotype) of 50 to 75% and an inhibition in vivo at 10 µM ([2]; 10 μM, vs vehicle (0.05% DMSO), read-out: Anti-angiogenic phenotype) greater than 75%. The IC50 (HUVEC) was 2.45 ± 0.09 µM, the IC50 (A549) was 1.29 ± 0.14 µM and the IC50 (K562) was 0.28 ± 0.03 µM. The IC50 (HepG2) was 1.85 ± 0.08 µM, the IC50 (HeLa) was 4.96 ± 0.88 µM and the IC50 (HCT116) was 0.56 ± 0.01 µM. For the same compound, the IC50 (LO2) was 1.62 ± 0.08 µM, the “heart rates relative to control group” value (zebrafish embryos [3]; 2.5 µM and 10 µM, zebrafish) was “about half of the control group” and the “Heart rates of zebrafish” value (zebrafish embryos [3]; 2.5 μM) was 60 ± 5.2 beats/min. For the same compound, the “Heart rates of zebrafish” value (zebrafish embryos [3]; 10 μM) was 60 ± 2.86 beats/min.
